Biological target: T1, HR domain of chicken transitin (HR) (Gallus gallus, UniProt Q90831)
T1 construct: entire C-terminal heptad repeat (HR) domain, more than 50 LQVEHGD repeats; T7- or His-tag fusion protein, expressed in bacteria
Experiment: malachite green phosphate release
Type: biochemical
Details: 10 mM MgCl2, pH 7.5, 25°C

T1 sequence (Q90831 323-1840 limits assumed): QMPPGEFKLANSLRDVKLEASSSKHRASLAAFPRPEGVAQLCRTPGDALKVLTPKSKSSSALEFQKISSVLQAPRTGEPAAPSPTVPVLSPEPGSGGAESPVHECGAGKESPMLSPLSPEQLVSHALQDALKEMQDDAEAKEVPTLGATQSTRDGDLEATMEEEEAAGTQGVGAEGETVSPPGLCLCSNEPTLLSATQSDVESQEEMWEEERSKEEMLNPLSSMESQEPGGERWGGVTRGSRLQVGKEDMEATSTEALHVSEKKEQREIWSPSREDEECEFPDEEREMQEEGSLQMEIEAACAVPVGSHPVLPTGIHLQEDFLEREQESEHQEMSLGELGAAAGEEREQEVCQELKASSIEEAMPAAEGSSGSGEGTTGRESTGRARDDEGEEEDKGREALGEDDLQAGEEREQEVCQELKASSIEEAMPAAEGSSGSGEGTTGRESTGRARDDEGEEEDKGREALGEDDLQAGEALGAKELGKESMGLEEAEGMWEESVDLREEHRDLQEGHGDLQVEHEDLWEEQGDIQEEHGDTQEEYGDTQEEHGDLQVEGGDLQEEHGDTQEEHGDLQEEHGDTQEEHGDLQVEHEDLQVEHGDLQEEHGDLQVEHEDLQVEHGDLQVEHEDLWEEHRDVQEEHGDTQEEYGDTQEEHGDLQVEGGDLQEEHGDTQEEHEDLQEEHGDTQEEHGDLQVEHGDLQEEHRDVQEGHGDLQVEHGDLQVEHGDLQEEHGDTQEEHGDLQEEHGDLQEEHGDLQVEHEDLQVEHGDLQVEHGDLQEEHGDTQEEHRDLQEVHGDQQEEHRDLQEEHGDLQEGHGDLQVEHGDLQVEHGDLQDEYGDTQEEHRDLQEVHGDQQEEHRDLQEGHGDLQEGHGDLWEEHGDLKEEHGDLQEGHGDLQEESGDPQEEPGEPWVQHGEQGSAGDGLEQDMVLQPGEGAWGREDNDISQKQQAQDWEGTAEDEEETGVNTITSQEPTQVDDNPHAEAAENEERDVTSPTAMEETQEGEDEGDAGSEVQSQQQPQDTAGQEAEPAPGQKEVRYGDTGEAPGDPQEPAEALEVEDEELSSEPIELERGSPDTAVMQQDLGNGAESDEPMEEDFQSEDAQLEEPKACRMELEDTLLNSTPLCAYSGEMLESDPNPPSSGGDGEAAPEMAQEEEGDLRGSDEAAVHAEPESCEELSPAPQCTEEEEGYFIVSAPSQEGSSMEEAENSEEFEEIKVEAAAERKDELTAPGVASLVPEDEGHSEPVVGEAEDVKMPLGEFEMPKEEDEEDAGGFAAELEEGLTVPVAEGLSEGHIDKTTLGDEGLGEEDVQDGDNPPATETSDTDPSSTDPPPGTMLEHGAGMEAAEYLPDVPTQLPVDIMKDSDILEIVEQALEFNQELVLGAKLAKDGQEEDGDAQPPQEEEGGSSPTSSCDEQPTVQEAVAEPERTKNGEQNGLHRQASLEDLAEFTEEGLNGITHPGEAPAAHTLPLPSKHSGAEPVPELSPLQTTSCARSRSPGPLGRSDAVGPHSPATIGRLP

| Structure (SMILES) | malachite green phosphate release (1 mM ATP) | malachite green phosphate release (1 mM GTP) |
| --- | --- | --- |
| Nc1ncnc2c1ncn2[C@@H]1O[C@H](COP(=O)(O)OP(=O)(O)OP(=O)(O)O)[C@@H](O)[C@H]1O [ATP] | The HR domain of transitin has ATPase (Fig. 4a) as well as GTPase (Fig. 4b) activity | – |
| Nc1nc2c(ncn2[C@@H]2O[C@H](COP(=O)(O)OP(=O)(O)OP(=O)(O)O)[C@@H](O)[C@H]2O)c(=O)[nH]1 [GTP] | – | The HR domain of transitin has ATPase (Fig. 4a) as well as GTPase (Fig. 4b) activity |
